Assay results taken from patent US4338334A, “1-[4-(4-Sulfanilyl)phenyl] urea and derivatives in compositions and methods of treating rheumatoid arthritis and immune complex diseases” (priority 1980, dated 1982).

Experiments:
[1] = cited from earlier work; for ability to alter the course of the disease / immune complexes as measured by rheumatoid factor titers: rheumatoid arthritis
[2] = tested on: lymphocyte; assay: lymphocyte transformation; assay type: cell-based
[3] = tested on: mammalian macrophage membrane; assay: incorporation of choline into the mammalian macrophage membrane; assay type: cell-based
[4] = tested on: methemoglobin; design: species or system mice; details: mouse, in vivo
[5] = tested on: chick peritoneal macrophages; details: Shigeura et al., 1975; cited from earlier work
[6] = tested on: mice; assay: acute toxicity as measured by LD50 in mice; assay type: in vivo; details: compared with dapsone
[7] = tested on: Marek's disease; details: cited from earlier work

Row | Compound | ability to alter the course of the disease [1] | immune complexes as measured by rheumatoid factor titers [1] | lymphocyte transformation [2] | incorporation of choline into the mammalian macrophage membrane [3] | also measured
1 | gold | can alter the course of the disease | reducing the immune complexes | – | – | –
2 | Nc1ccc(S(=O)(=O)c2ccc(N)cc2)cc1 [Dapsone, 4,4'-diaminodiphenylsulfone] | – | – | effect lymphocyte transformation | inhibit the incorporation | effectiveness in treating rheumatoid arthritis ([1]; McConkey et al., 1976): effective in treating rheumatoid arthritis
3 | NC(=O)Nc1ccc(S(=O)(=O)c2ccc(N)cc2)cc1 [1-[4-(4-sulfanilyl)phenyl]urea] | – | – | effect lymphocyte transformation | inhibit the incorporation | methemoglobin formation [4]: significantly less active in producing this toxic syndrome; incorporation of chloline in chick peritoneal macrophages [5]: inhibit the incorporation; acute toxicity as measured by LD50 [6]: less acutely toxic than dapsone; lesion incidence of poultry exposed to Marek's disease [7]: decreasing lesion incidence; mortality of poultry exposed to Marek's disease [7]: reducing mortality
4 | CC(C)(S)[C@@H](N)C(=O)O [D-penicillamine] | can alter the course of the disease | reducing the immune complexes | – | – | –
5 | CC(=O)Oc1ccccc1C(=O)O [aspirin] | unable to alter the course of the disease | – | – | – | symptomatic relief of the acute syndrome characterizing rheumatoid arthritis ([1]; in vivo): effective in providing symptomatic relief of the acute syndrome
